This note sets out measurements from PMC6487404, “An Investigation into the Role of P-Glycoprotein in the Intestinal Absorption of Repaglinide: Assessed by Everted Gut Sac and Caco-2 Cell Line” (Iranian Journal of Pharmaceutical Research : IJPR, 2019).

Broadly, the Papp is a coefficient for how fast a substance crosses the barrier. By Papp A→B is commonly meant how fast a substance crosses the layer from the apical side. As usually defined, the Papp B→A is the apparent permeability from the basolateral to the apical side of a cell layer.

Read-outs that look alike come from different tables or passages of the source. Where only a bound is given, the exact number is not on record here.

Data set [1] is described as follows: Everted gut sac transport of REG, mucosal to serosal. The class given is in vitro ADME, rat. Conditions: for Increase in drug permeability in presence of inhibitor: everted gut sac. The procedure:
The everted sac method was used as previously described ([11]). All animal experiments were approved by the local ethics committee of Shahid Beheshti University of Medical Sciences (Tehran, Iran). Male Wistar rats weighing 230 and 250 g were fasted for 24 h but were allowed free access to water. Under deep anesthesia, the jejunum of the rat intestines (approximately 10 cm) was quickly excised, and the underlying mesenterium was removed. The segment was washed several times with normal saline solution and placed immediately into the oxygenated Krebs buffer (composition: NaCl 118 mM, NaHCO3 25 mM, KCl 4.7 mM, CaCl22.5 mM, MgSO4 1.2 mM, KH2PO4 1.2 mM, and d-glucose 11 mM). The intestine was carefully everted on a glass rod (3.0 mm diameter), filled with 2 mL of Krebs buffer, and divided into sacs approximately 4.5 cm in length with silk suture. The sacs were placed in the oxygenated buffer solution (pH 6.8). The solution was maintained at 37 °C with 95% O2 and 5% CO2 throughout the experiment.
Sacs were placed in 25 mL of oxygenated buffer solutions (pH 6.8) containing different concentrations of REG (10 to 100 µM) with or without the P-gp inhibitors at the typically used inhibitory concentrations: verapamil (100 µM), valspodar (5 µM), or ketoconazole (10 µM) ([12]-[14]). At various time points, 10, 20, 35, 45, 60, and 90 min, sacs were removed, blotted dry, and the serosal contents were collected. REG serosal concentration was determined by a validated HPLC method (Section 2.4). Each sac was weighed before and after the experiment to calculate the fluid volume inside the sac.
(§1) HPLC was conducted using a system consisting of a Wellchrom K-1001 HPLC pump and a K-2700 diode array UV/VIS spectrophotometric detector (Knauer, Germany). The analyses were conducted at ambient temperature on a Perfect Sil RP-18 (150 mm × 4.6 mm i.d., Merck). The optimal mobile phase for REG was a mixture of acetonitrile and phosphate buffer 0.02 M (60:40 V/V) delivered at a flow rate of 1 mL/min. The detection wavelength was set at 242 nm and the injection volume was 100 μL. The column temperature was maintained at room temperature. The calibration curves were linear over the concentration range of 100-1000 ng/mL (R^2 > 0.994). The intra-day and inter-day coefficients of the variation (CV) were all less than 5%.
(§2) Apparent permeability coefficients (Papp) of REG were calculated in everted gut sac and Caco-2 cell line according to the below equation ([19]): […]
(§3) Where the dQ/dt (ng/min) is drug permeation rate, A (cm^2) the cross sectional area, and C0 (ng/mL) the initial concentration of REG in the donor chamber. In Caco-2 cell, the Papp of REG was calculated in both apical to basolateral (papp.AB), and basolateral to apical (papp.BA) directions. The efflux ratio (ER) of the drug in Caco-2 cell was assessed by calculating the ratio of papp.BA to papp.AB (papp.BA/papp.AB). TEER was calculated based on the following equation ([16]): […]

A short description of data set [2]: Bi-directional transport of REG across Caco-2 cell monolayers. The class given is in vitro ADME. The settings on record: human, Caco-2, mean ± SD, n = 3. The procedure:
(§4) Caco-2 cells (purchased from Pasteur Institute of Iran) were grown on 75 cm^2 plastic culture flasks, containing 15% (V/V) fetal bovine serum (FBS), 50% RPMI 1640, 34% DMEM and 1% (V/V) penicillin–streptomycin at 37 °C in a 95% humidified air with 5% CO2. The growth medium was changed every other day, and the cells were trypsinized using Trypsin-EDTA every 4 days for passage. The cells with passage numbers of 35-40 were used for the drug transport experiments.
(§5) When reaching 80–90% confluency, for transport study, the cells were seeded on polycarbonate filter inserts (with pore size of 0.4 µm, 1.13 cm^2 surface area, Korea) at a density of 5 × 10^4 cells/cm^2 and grown for 21 days to allow full expression of P-gp and appropriate tight junctions. To evaluate the integrity of cellular monolayer, the transepithelial electrical resistance (TEER) was measured and transport studies were conducted when the TEER values were more than 300-400 Ωcm^2. Before conducting drug transport experiments, the cells were washed twice with HBSS containing 25 mM HEPES (pH 7.4, 37 °C). Then, monolayers were pre-incubated at 37 °C for 30 min, and TEER values were measured. HBSS/HEPES buffer on both sides of the cell monolayers was then removed by aspiration and replaced with REG solution with various concentrations (20, 40 and 60 µM) on one side of the cell layer, apical (A) or basolateral (B), and fresh blank buffer on the other side. The volume of the buffer on the apical and basolateral side of the cell layer was 0.3 mL and 0.7 mL, respectively. The monolayers were incubated at 37 °C, placed in a shaker and shaken at 50 rpm during the transport process. The samples were taken from the receptor chamber (apical side or basolateral side in the case of B-A and A-B transport studies, respectively) at 30, 60, 90, 120 and 180 min, and then replaced with the same volume of the pre-warmed fresh buffer. Each experiment was repeated three times and REG concentration was determined by the HPLC system. The inhibition of REG efflux across Caco-2 cells was examined in the presence of two common P-gp inhibitors: verapamil (100 μM) and valspodar (5 μM).
as §1, §2, §3
A general note: Caco-2 monolayers are a common model of the intestinal barrier.

For data set [3], the system named is Caco-2 cell monolayers. Described as above. The class given is in vitro ADME. The settings on record: Caco-2 results, ER and effect of P-gp inhibitors. The procedure: as §4, §5, §1, §2, §3
In another data set the test system is P-gp. The description is as above. It is filed as in vitro ADME. Conditions: human, Caco-2, mean ± SD, n = 3; for efflux ratio at 180 min, 40 µM: read-out: ER (efflux ratio, papp.BA/papp.AB). The procedure: as §4, §5, §1, §2, §3
For data set [4], the system named is Caco-2 cell monolayers. The data set is described as follows: Lucifer yellow passage across Caco-2 monolayers (monolayer integrity). The class given is in vitro ADME. Conditions: 100 µg/mL, 37 °C, all the experiments. The protocol: To determine the cell monolayers integrity, the TEER values and percent of Lucifer yellow transport across the cell monolayers were measured. The TEER was measured using an EVOM 2 Epithelial Voltohmmeter (World Precision Instrument, Sarasota, USA). The transport studies were conducted when the TEER values were more than 300-400 Ωcm^2. A reduction in the TEER recorded across a monolayer indicates the dilation of tight junctions or a disruption of the monolayer ([16], [17]). Lucifer yellow is a small hydrophilic fluorescent molecule that is easily detectable by spectrophotofluorometer (485 nm excitation and 535 nm emission). The paracellular transfer of Lucifer yellow was determined and served as an additional marker for the epithelial cell tightness. In each set of experiments, Lucifer yellow was added (100 µg/mL) to the inserts and its passage was evaluated at 37 °C ([18]).
Where TEERmono is the cell monolayer and porous membrane resistance, TEERblank the porous membrane resistance, and A the porous membrane surface area. The Lucifer yellow transport was calculated according to the following equation ([18]):
Lucifer Yellow Passage% = [(Ft − Fb)/(F0 − Fb)] × 100
Ft is the fluorescence intensity of Lucifer yellow across the monolayer, F0 the initial fluorescence intensity of Lucifer yellow on the donor side, and Fb the fluorescence intensity of the blank sample (HBSS/HEPES buffer alone).

The mark [5] stands for this setting: pH 7.4, with valspodar 5 µM, REG 40 µM + valspodar 5 µM.
[6] abbreviates: pH 7.4, with verapamil 100 µM, REG 40 µM + verapamil 100 µM.

With `CCOc1cc(CC(=O)N[C@@H](CC(C)C)c2ccccc2N2CCCCC2)ccc1C(=O)O` [REG, Repaglinide], the “Increase in drug permeability in presence of inhibitor” value in data set [1] (REG 20 µM plus ketoconazole 10 µM versus control) was found to be 3 fold; in data set [1] (REG 20 µM plus valspodar 5 µM versus control), 2.6 fold; in data set [1] (REG 20 µM plus verapamil 100 µM versus control), 3 fold. Moreover, the “Apparent permeability coefficient (Papp) across everted gut sacs” value in data set [1] (REG 40 µM, mucosal to serosal, rat jejunum, pH 6.8, mean ± SD, n = 3) is on record as 1.23 ± 0.19 × 10^-5 cm/s; in data set [1] (REG 100 µM, mucosal to serosal, rat jejunum, pH 6.8, mean ± SD, n = 3), 3.29 ± 0.58 × 10^-5 cm/s. The Papp at 90 min, 40 µM in data set [1] (male, Wistar, rat, pH 6.8, drug concentration 40 µM, read-out: Papp in everted gut sacs (abstract)) came to 12.3 ×10⁻⁶ cm/s. In addition, the Papp at 90 min, 100 µM in data set [1] (male, Wistar, rat, pH 6.8, drug concentration 100 µM, read-out: Papp in everted gut sacs (abstract)) is 32.9 ×10⁻⁶ cm/s. Besides, the Papp at 90 min, 10 µM in data set [1] (male, Wistar, REG 10 µM, mucosal to serosal, rat jejunum, pH 6.8, mean ± SD, n = 3, read-out: Apparent permeability coefficient (Papp) across everted gut sacs) was found to be 12.1 ± 1.4 ×10⁻⁶ cm/s. In data set [1] (male, Wistar, REG 20 µM, mucosal to serosal, rat jejunum, pH 6.8, mean ± SD, n = 3, read-out: Apparent permeability coefficient (Papp) across everted gut sacs), the Papp at 90 min, 20 µM amounted to 11.6 ± 0.9 ×10⁻⁶ cm/s. Moreover, the efflux ratio at 180 min, 20 µM in data set [2] (Caco-2, pH 7.4, REG 20 µM, read-out: ER (efflux ratio, papp.BA/papp.AB)) was 0.64 ± 0.02. Moreover, the efflux ratio at 180 min, 40 µM worked out at 0.65 ± 0.05 in data set [2] (Caco-2, pH 7.4, REG 40 µM, read-out: ER (efflux ratio, papp.BA/papp.AB)); 0.68 ± 0.07 in the data set with P-gp (Caco-2, pH 7.4, with valspodar 5 µM, REG 40 µM + valspodar 5 µM); 0.61 ± 0.09 in the data set with P-gp (Caco-2, pH 7.4, with verapamil 100 µM, REG 40 µM + verapamil 100 µM). Further, the efflux ratio at 180 min, 60 µM in data set [2] (Caco-2, pH 7.4, REG 60 µM, read-out: ER (efflux ratio, papp.BA/papp.AB)) amounted to 0.8 ± 0.07. In data set [2] (pH 7.4, REG 20 µM), this molecule yielded a Papp A→B at 180 min, 20 µM of 16.7 ± 0.4 ×10⁻⁶ cm/s. In data set [2] (pH 7.4, REG 20 µM), the Papp B→A at 180 min, 20 µM is 10.7 ×10⁻⁶ cm/s. Moreover, the Papp A→B at 180 min, 40 µM turned out to be 18.4 ± 1.2 ×10⁻⁶ cm/s in data set [2] (pH 7.4, REG 40 µM); 16.4 ± 0.5 ×10⁻⁶ cm/s in the data set with P-gp (setting [5]); 19.6 ± 2.7 ×10⁻⁶ cm/s in the data set with P-gp (setting [6]). In addition, the Papp B→A at 180 min, 40 µM in data set [2] (pH 7.4, REG 40 µM) is 11.9 ×10⁻⁶ cm/s; with P-gp (setting [5]) it was 11.2 ×10⁻⁶ cm/s; with P-gp (setting [6]), 11.8 ± 1.2 ×10⁻⁶ cm/s. The same molecule yielded an apparent permeability from apical to basolateral (Papp A→B) at 180 min, 60 µM in data set [2] (pH 7.4, REG 60 µM) of 18.3 ± 0.4 ×10⁻⁶ cm/s. Also, the Papp B→A at 180 min, 60 µM in data set [2] (pH 7.4, REG 60 µM) was 14.6 ×10⁻⁶ cm/s. Also, the “P-gp substrate recognition (FDA guidance criteria)” value in the data set on Caco-2 cell monolayers [3] is recorded as “cannot be considered as a distinct P-gp substrate”.

On to Lucifer yellow, for which, in the data set with Caco-2 cell monolayers [4], the “Transport (passage) of Lucifer yellow across the monolayer” value is < 0.3%.
